According to patent US20050107423A1, “Quinolone antibacterial agents” (priority 2003, published 2005):
In brackets after ≈: the same amount, converted by molar mass.

How the values were obtained:
Assay in all cases: Antibacterial assay, microtitration MIC (Test A)
Format in all cases: cell-based
[1] = test system: E. coli EC-2549; conditions: Escherichia coli, EC2549, Gram Negative Bacteria; strain EC-2549; read-out: Minimum Inhibitory Concentrations E. coli EC-2549
Procedure: (§1) The compounds of the present invention were tested against an assortment of Gram-negative and Gram-positive organisms using standard microtitration techniques (Cohen et. al., Antimicrob., 1985;28:766; Heifetz, et. al., Antimicrob., 1974;6:124). The results of the evaluation are shown in Tables 1A and B, wherein “-” means no data.

[2] = test system: H. influenzae HI-3542; conditions: Haemophilus influenzae, HI3542, Gram Negative Bacteria; strain HI-3542; read-out: Minimum Inhibitory Concentrations H. influenzae HI-3542
Procedure: as §1

[3] = test system: M. catarrhalis BC-3531; conditions: strain BC-3531; for MIC: Moraxella catarrhalis, BC3531, Gram Negative Bacteria, read-out: Minimum Inhibitory Concentrations M. catarrhalis BC-3531
Procedure: as §1

COc1c(N2CCC(C(O)CO)C2)c(F)cc2c(=O)c(C(=O)O)cn(C3CC3)c12 (stereo not drawn) [drawing 322]
MIC [1]: 0.03 µg/mL (≈ 0.0738 µM)
MIC [2]: 0.015 µg/mL (≈ 0.0369 µM)
MIC [3]: 0.04 µg/mL (≈ 0.0984 µM)

COc1c(N2CCC(C(C)O)C2)c(F)cc2c(=O)c(C(=O)O)cn(C3CC3)c12 (stereo not drawn) [drawing 316]
MIC [1]: 0.125 µg/mL (≈ 0.32 µM)
MIC [2]: 0.008 µg/mL (≈ 0.0205 µM)
MIC [3]: 0.015 µg/mL (≈ 0.0384 µM)

COCC(O)C1CCN(c2c(F)cc3c(=O)c(C(=O)O)cn(C4CC4)c3c2C)C1 (stereo not drawn) [drawing 337]
MIC [1]: 1 µg/mL (≈ 2.47 µM)
MIC [2]: 0.125 µg/mL (≈ 0.309 µM)
MIC [3]: 0.125 µg/mL (≈ 0.309 µM)

Cc1c(N2CC(C(O)CO)C3(CC3)C2)c(F)cc2c(=O)c(C(=O)O)cn(C3CC3)c12 (stereo not drawn) [drawing 422]
MIC [1]: 0.125 µg/mL (≈ 0.3 µM)
MIC [2]: 0.015 µg/mL (≈ 0.036 µM)
MIC [3]: 0.03 µg/mL (≈ 0.072 µM)

Cc1c(N2CC(C(O)CO)C(C)(C)C2)c(F)cc2c(=O)c(C(=O)O)cn(C3CC3)c12 (stereo not drawn) [drawing 425]
MIC [1]: 0.5 µg/mL (≈ 1.19 µM)
MIC [2]: 0.06 µg/mL (≈ 0.143 µM)
MIC [3]: 0.06 µg/mL (≈ 0.143 µM)

O=C(O)c1cn(-c2ccc(F)cc2F)c2nc(N3C[C@@H](CO)[C@@H](CO)C3)c(F)cc2c1=O [drawing 379]
MIC [1]: 0.5 µg/mL (≈ 1.11 µM)
MIC [2]: 0.03 µg/mL (≈ 0.0668 µM)
MIC [3]: 0.25 µg/mL (≈ 0.556 µM)

COCCOCC(O)C1CN(c2c(F)cc3c(=O)c(C(=O)O)cn(C4CC4)c3c2C)CC1(C)C (stereo not drawn) [drawing 424]
MIC [1]: 2 µg/mL (≈ 4.2 µM)
MIC [2]: 0.5 µg/mL (≈ 1.05 µM)
MIC [3]: 0.25 µg/mL (≈ 0.525 µM)

CCOC[C@@H]1CN(c2c(F)cc3c(=O)c(C(=O)O)cn(C4CC4)c3c2C)C[C@@H]1CO [drawing 390]
MIC [1]: 0.125 µg/mL (≈ 0.299 µM)
MIC [2]: 0.03 µg/mL (≈ 0.0717 µM)
MIC [3]: 0.03 µg/mL (≈ 0.0717 µM)

COc1c(N2C[C@@H](CO)[C@@H](CO)C2)c(F)c(N)c2c(=O)c(C(=O)O)cn(C3CC3)c12 [drawing 381]
MIC [1]: 0.25 µg/mL (≈ 0.593 µM)
MIC [2]: 0.03 µg/mL (≈ 0.0712 µM)
MIC [3]: 0.125 µg/mL (≈ 0.297 µM)

Nc1nc(-n2cc(C(=O)O)c(=O)c3cc(F)c(N4CCC(C(O)C(F)F)C4)c(Cl)c32)c(F)cc1F (stereo not drawn) [drawing 313]
MIC [1]: 0.25 µg/mL (≈ 0.482 µM)
MIC [2]: 0.008 µg/mL (≈ 0.0154 µM)
MIC [3]: 0.015 µg/mL (≈ 0.0289 µM)

Cc1c(N2C[C@@H]3CC[C@@](O)(CO)[C@@H]3C2)c(F)cc2c(=O)c(C(=O)O)cn(C3CC3)c12 [drawing 450]
MIC [1]: 0.125 µg/mL (≈ 0.3 µM)
MIC [2]: 0.015 µg/mL (≈ 0.036 µM)
MIC [3]: 0.03 µg/mL (≈ 0.072 µM)

Nc1c(F)c(N2CCC(C(O)C(F)(F)F)C2)c(F)c2c1c(=O)c(C(=O)O)cn2C1CC1 (stereo not drawn) [drawing 332]
MIC [1]: 0.06 µg/mL (≈ 0.134 µM)
MIC [2]: 0.004 µg/mL (≈ 0.00894 µM)
MIC [3]: 0.008 µg/mL (≈ 0.0179 µM)

COc1c(N2C[C@@H](CO)[C@@H](CO)C2)c(F)cc2c(=O)c(C(=O)O)cn(C3CC3)c12 [drawing 384]
MIC [1]: 0.125 µg/mL (≈ 0.308 µM)
MIC [2]: 0.004 µg/mL (≈ 0.00984 µM)
MIC [3]: 0.015 µg/mL (≈ 0.0369 µM)

Cc1c(N2C[C@@H](CO)[C@@H](CO)C2)c(F)cc2c(=O)c(C(=O)O)cn(C3CC3)c12 [drawing 386]
MIC [1]: 0.06 µg/mL (≈ 0.154 µM)
MIC [2]: 0.001 µg/mL (≈ 0.00256 µM)
MIC [3]: 0.015 µg/mL (≈ 0.0384 µM)

COc1c(N2CCC(C(CO)CO)C2)c(F)cc2c(=O)c(C(=O)O)cn(C3CC3)c12 (stereo not drawn) [drawing 307]
MIC [1]: 0.06 µg/mL (≈ 0.143 µM)
MIC [2]: 0.008 µg/mL (≈ 0.019 µM)
MIC [3]: 0.015 µg/mL (≈ 0.0357 µM)

Cc1c(N2C[C@@H]3CC[C@@H](O)[C@@H]3C2)c(F)cc2c(=O)c(C(=O)O)cn(C3CC3)c12 [drawing 442]
MIC [1]: 0.03 µg/mL (≈ 0.0776 µM)
MIC [2]: 0.008 µg/mL (≈ 0.0207 µM)
MIC [3]: 0.008 µg/mL (≈ 0.0207 µM)

COc1c(N2C[C@]3(CO)CCC[C@]3(CO)C2)c(F)cc2c(=O)c(C(=O)O)cn(C3CC3)c12 [drawing 451]
MIC [1]: 2 µg/mL (≈ 4.48 µM)
MIC [2]: 0.125 µg/mL (≈ 0.28 µM)
MIC [3]: 0.25 µg/mL (≈ 0.56 µM)

Cc1c(N2CC3(CO)CCCC3(CO)C2)c(F)cc2c(=O)c(C(=O)O)cn(C3CC3)c12 (stereo not drawn) [drawing 452]
MIC [1]: 0.125 µg/mL (≈ 0.29 µM)
MIC [2]: 0.015 µg/mL (≈ 0.0348 µM)
MIC [3]: 0.03 µg/mL (≈ 0.0697 µM)

COc1c(N2CCC(C(O)C(F)(F)F)C2)c(F)cc2c(=O)c(C(=O)O)cn(C3CC3)c12 (stereo not drawn) [drawing 331]
MIC [1]: 0.125 µg/mL (≈ 0.281 µM)
MIC [2]: 0.015 µg/mL (≈ 0.0338 µM)
MIC [3]: 0.008 µg/mL (≈ 0.018 µM)

Nc1nc(-n2cc(C(=O)O)c(=O)c3cc(F)c(N4CCC(C(O)C(F)(F)F)C4)c(Cl)c32)c(F)cc1F (stereo not drawn) [drawing 333]
MIC [1]: 1 µg/mL (≈ 1.86 µM)
MIC [2]: 0.06 µg/mL (≈ 0.112 µM)
MIC [3]: 0.125 µg/mL (≈ 0.233 µM)

Nc1nc(-n2cc(C(=O)O)c(=O)c3cc(F)c(N4CCC(C(O)CO)C4)c(Cl)c32)c(F)cc1F (stereo not drawn) [drawing 326]
MIC [1]: 0.25 µg/mL (≈ 0.501 µM)
MIC [2]: 0.008 µg/mL (≈ 0.016 µM)
MIC [3]: 0.125 µg/mL (≈ 0.251 µM)

O=C(O)c1cn(C2CC2)c2c(Cl)c(N3CCC(C(O)C4(CO)CC4)C3)c(F)cc2c1=O (stereo not drawn) [drawing 321]
MIC [1]: 0.06 µg/mL (≈ 0.133 µM)
MIC [2]: 0.008 µg/mL (≈ 0.0177 µM)
MIC [3]: 0.016 µg/mL (≈ 0.0355 µM)

O=C(O)c1cn(C2CC2)c2c(Cl)c(N3CCC(C(O)CO)C3)c(F)cc2c1=O (stereo not drawn) [drawing 324]
MIC [1]: 0.06 µg/mL (≈ 0.146 µM)
MIC [2]: 0.004 µg/mL (≈ 0.00974 µM)
MIC [3]: 0.016 µg/mL (≈ 0.0389 µM)

COC[C@H]1CN(c2c(F)cc3c(=O)c(C(=O)O)cn(C4CC4)c3c2C)C[C@H]1CO [drawing 387]
MIC [1]: 0.06 µg/mL (≈ 0.148 µM)
MIC [2]: 0.008 µg/mL (≈ 0.0198 µM)
MIC [3]: 0.015 µg/mL (≈ 0.0371 µM)

Cc1c(N2CCC(C(C)O)C2)c(F)cc2c(=O)c(C(=O)O)cn(C3CC3)c12 (stereo not drawn) [drawing 315]
MIC [1]: 0.06 µg/mL (≈ 0.16 µM)
MIC [2]: 0.002 µg/mL (≈ 0.00534 µM)
Minimum Inhibitory Concentrations M. catarrhalis BC-3531 ([3]; Gram Negative Bacteria): 0.002 µg/mL
